Data reported in the CheMixHub viscosity set.

Test: xn = mol fraction of the nth substance listed

ClC(Cl)(Cl)Cl + CCCCCCO
viscosity [mPa·s], 101 kPa
Conditions	298.15 K	308.15 K	318.15 K
x2 = 0.0092	0.909	0.786	0.691
x2 = 0.0374	0.941	0.817	0.71
x2 = 0.07	0.961	–	–
x2 = 0.0912	1	0.865	0.745
x2 = 0.14	1.058	–	–
x2 = 0.1545	1.11	0.938	0.806
x2 = 0.2095	1.197	1.008	0.861
x2 = 0.21	1.167	–	–
x2 = 0.27	1.299	–	–
x2 = 0.293	1.368	1.127	0.942
x2 = 0.3554	1.533	1.255	1.046
x2 = 0.496	1.965	1.564	1.273
x2 = 0.5	1.931	–	–
x2 = 0.6	2.317	–	–
x2 = 0.6252	2.531	1.957	1.548
x2 = 0.69	2.737	–	–
x2 = 0.7459	3.091	2.344	1.814
x2 = 0.86	3.57	–	–
x2 = 0.8652	3.83	2.863	2.202

ClC(Cl)(Cl)Cl + CCCCCO
viscosity [mPa·s], 101 kPa
Conditions	x2 = 0.0207	x2 = 0.0826	x2 = 0.3114	x2 = 0.4575	x2 = 0.5771	x2 = 0.8017
298.15 K	0.912	0.971	1.306	1.62	1.884	2.761
308.15 K	0.798	0.84	1.03	1.241	1.488	2.103
318.15 K	0.708	0.741	0.886	1.037	1.199	1.647

CCOC(=O)c1ccccc1O + CCCCCOC(C)=O
Conditions	viscosity [mPa·s]
298.15 K, 101 kPa, x2 = 0.5	1.045

COc1ccc(C)cc1 + CCCCCOC(C)=O
Conditions	viscosity [mPa·s]
298.15 K, 101 kPa, x1 = 0.5	0.8602

COc1cccc(C)c1 + CCCCCOC(C)=O
Conditions	viscosity [mPa·s]
298.15 K, 101 kPa, x1 = 0.5	0.8784

CCCC(C)=O + CCCCN
303.15 K, 101.33 kPa
Conditions	viscosity [mPa·s]
x2 = 0.1	0.608
x2 = 0.1974	0.752
x2 = 0.3754	0.936
x2 = 0.5189	1.023
x2 = 0.6418	1.061
x2 = 0.7158	0.949
x2 = 0.8252	0.825
x2 = 0.8978	0.709

CCN(CC)CC + CCCCN
viscosity [mPa·s], 101.33 kPa
Conditions	x1 = 0.1038	x1 = 0.2009	x1 = 0.4065	x1 = 0.5021	x1 = 0.5996	x1 = 0.801	x1 = 0.8898
303.15 K	0.4186	0.4019	0.3761	0.3681	0.3611	0.357	0.3569
313.15 K	0.3692	0.3555	0.3345	0.329	0.3244	0.3216	0.3228

CCCC(C)=O + CCCCN(CCCC)CCCC
viscosity [mPa·s], 101 kPa
Conditions	298.15 K	303.15 K	308.15 K
x2 = 0.0499	0.49	0.465	0.436
x2 = 0.1	0.521	0.49	0.462
x2 = 0.1499	0.554	0.521	0.491
x2 = 0.2	0.588	0.551	0.519
x2 = 0.2498	0.624	0.584	0.547
x2 = 0.3	0.66	0.614	0.575
x2 = 0.3999	0.735	0.681	0.636
x2 = 0.4997	0.81	0.75	0.698
x2 = 0.5997	0.889	0.821	0.764
x2 = 0.7002	0.974	0.898	0.832
x2 = 0.7997	1.065	0.977	0.902
x2 = 0.8463	1.108	1.02	0.936
x2 = 0.899	1.165	1.064	0.979
x2 = 0.956	1.227	1.118	1.025

CCN(CC)CC + CCCCO
303.15 K, 101 kPa
Conditions	viscosity [mPa·s]
x1 = 0.01087	2.223
x1 = 0.02221	2.193
x1 = 0.0326	2.162
x1 = 0.04176	2.133
x1 = 0.05247	2.098
x1 = 0.06249	2.076
x1 = 0.07262	2.052
x1 = 0.08419	2.019
x1 = 0.09512	1.991
